# Experimental data published in publication PMC5343011, “Phenol-Soluble Modulin α Peptide Toxins from Aggressive Staphylococcus aureus Induce Rapid Formation of Neutrophil Extracellular Traps through a Reactive Oxygen Species-Independent Pathway” (Frontiers in Immunology, 2017).
# Assays:
# [1] = system: Formyl peptide receptor (FPR) 1 / FPR2; conditions: receptor through which the peptide activates neutrophils; dash = inactive; cited from earlier work
# Description: Table 1 Peptide sequences and receptor preferences of PSMα2. | column: Receptor preference^a
# [2] = system: neutrophils; test: Sytox Green DNA release / NET formation; assay type: cell-based, human
# Method: Peripheral blood neutrophils were isolated from 1-day-old buffy coats from healthy blood donors or from peripheral blood from patients and healthy controls. Neutrophil separation was performed as first described by Boyum ([23]). Briefly, after dextran, sedimentation at 1 × g the suspension was centrifuged on Ficoll-Paque, and the remaining erythrocytes were lysed by hypotonic treatment. The neutrophils were then washed in Krebs Ringer phosphate buffer (KRG) and finally resuspended in KRG supplemented with Ca^2+ (1 mM) and kept on melting ice until used. Buffy coats were obtained from the Sahlgrenska University Hospital blood bank after deidentification, and according to the Swedish legislation section code 4§ 3 p SFS2003:460, no informed consent is needed. Peripheral blood from one MPO-deficient individual, one patient with Papillon-Lefèvre syndrome, and healthy controls were obtained after written informed consent, and the study was approved by the Regional Ethical Review Board in Gothenburg, Sweden.
# Cells (5 × 10^4 cells/well) in RPMI (without phenol red) and the Sytox Green DNA stain (1.25 μM; Molecular Probes) were added to black 96-well plates and incubated at 37°C and 5% CO2 ([5]). Inhibitors, PBP10 (CASLO Laboratory) or diphenyleneiodonium chloride (DPI; Sigma-Aldrich), were preincubated with cells for 10 min at 37°C and 5% CO2 prior to stimulation. Sytox Green fluorescence was measured at indicated time points at 485/535 nm in a Mithras LB940 (Berthold Technologies) or in a CLARIOstar plate reader (BMG Labtech).
# [3] = system: neutrophils; test: Nuclear membrane integrity (SUN2 staining, confocal microscopy); assay type: cell-based, human; conditions: SUN2 and DNA staining, three independent experiments
# Method: Neutrophils or human A375 melanoma cells (2.5 × 10^5 cells/well) were suspended in RPMI and added to poly-lysine-coated coverslips. After stimulation with PMA (50 nM; Sigma-Aldrich) or PSMα (indicated concentrations), the cells were incubated at 37°C in the presence of 5% CO2 or at 4°C for indicated time. To visualize NETs, samples were fixed in 4% paraformaldehyde for 30 min at room temperature and stained with antibodies against MPO (DAKO), NE (Calbiochem), or Histone-1 (Acris) followed by secondary antibody staining. Finally, the coverslips were incubated with DAPI (1 μg/ml) for 5 min and then mounted in ProLong Gold antifade (Molecular Probes). For nuclear morphology experiments, neutrophils were incubated with PSMα2 for 10 min or with PMA for 30 min or 2 h, the cells were fixed on ice with 4% paraformaldehyde, permeabilized with cold acetone and methanol (1:1) for 5 min, and stained with SUN2 antibody (Abcam) followed by secondary antibody staining. To visualize microbes in the NETs, we used green fluorescent protein (GFP)-expressing Candida albicans, strain CAI4 containing a C. albicans-specific pENO1-GFP-CyC1t plasmid ([26]), or S. aureus, strain RN4220 containing the pCN-GFP plasmid that was a kind gift from Dr. Maria Lerm (Linköping University, Sweden). […]
# [4] = system: neutrophils; conditions: cited from earlier work
# Description: Further, we have shown that enzymatic conversion of ROS by MPO inside granules is a prerequisite for PMA-induced NET formation ([10]). We thus investigated whether MPO was required for PSMα-induced NET formation by using neutrophils from a completely MPO-deficient donor [previously described in Ref. ([10])] that was sampled at two occasions (with nearly identical results). Neutrophils fro ...
# [5] = system: A375 melanoma cells; test: Microscopic visualization of melanoma cells (DAPI); assay type: cell-based, human; conditions: PSMα2 or PSMα3 2.5 μM for 1 h, PMA 50 nM for 3 h, three independent experiments
# Method: The human melanoma cell line A375 was a kind gift from Professor Jonas A. Nilsson (Sahlgrenska Cancer Center, University of Gothenburg, Sweden). The cells were cultured in DMEM with 10% FCS, 100 U/ml penicillin, and 100 μg/ml streptomycin at 37°C and 5% CO2. Before being used experimentally, the cells were detached from the flasks’ surface by incubation with 0.25% trypsin in 37°C for 10 min followed by washing and resuspension in RPMI culture media.
# Neutrophils or human A375 melanoma cells (2.5 × 10^5 cells/well) were suspended in RPMI and added to poly-lysine-coated coverslips. After stimulation with PMA (50 nM; Sigma-Aldrich) or PSMα (indicated concentrations), the cells were incubated at 37°C in the presence of 5% CO2 or at 4°C for indicated time. To visualize NETs, samples were fixed in 4% paraformaldehyde for 30 min at room temperature and stained with antibodies against MPO (DAKO), NE (Calbiochem), or Histone-1 (Acris) followed by secondary antibody staining. Finally, the coverslips were incubated with DAPI (1 μg/ml) for 5 min and then mounted in ProLong Gold antifade (Molecular Probes). […]
# [6] = system: neutrophils; test: Plasma membrane disruption by lactate dehydrogenase (LDH) release; assay type: cell-based, human; conditions: 10 min, 37°C, relative to Triton X-100-treated samples, two independent experiments in triplicates
# Method: Neutrophils (2 × 10^6 cells/ml) were incubated with PSMα2 or hexadecyltrimethylammonium bromide (CTAB, Sigma) for 10 min at 37°C. LDH was measured in the supernatants with cytotoxicity detection kit (LDH, Roche) as described in Ref. ([25]).
molecule,measurement,setting,value
"f-MGIIA [1–5, shorter PSMα2 variant, amino acids 1–5]",Receptor preference,[1],Formyl peptide receptor (FPR) 1
"f-MGIIAGIIKFIKGLIE [1–16, shorter PSMα2 variant, amino acids 1–16]",Receptor preference,[1],FPR2
"f-MGIIAGIIKFIK [1–12, shorter PSMα2 variant, amino acids 1–12]",Receptor preference,[1],FPR1/FPR2
"CCCCCCCCCCCCCC(=O)O[C@@H]1[C@@H](C)[C@@]2(O)[C@@H](C=C(CO)C[C@]3(O)C(=O)C(C)=C[C@@H]23)[C@@H]2C(C)(C)[C@]12OC(C)=O [PMA, phorbol myristate acetate]",Time to increase in Sytox green fluorescence,"[2]; PMA 50 nM, 37°C, three independent experiments",3 h
same,Stimulation time at which disruption of nuclear membranes was first observed,[3],2 h
same,NET formation by neutrophils from a completely MPO-deficient donor in response to PMA,[4],unable to form NETs
same,Extracellular DNA release from melanoma cells,[5],did not induce any DNA expulsion
"f-MGIIAGIIKF [1–10, shorter PSMα2 variant, amino acids 1–10]",Receptor preference,[1],FPR1
"CCCCCCCCCCCCCCCC[N+](C)(C)C [CTAB, hexadecyltrimethylammonium bromide]",NET formation (Sytox Green fluorescence) after detergent treatment,"[2]; 10 min, two independent experiments in triplicates",did not cause NET formation
same,LDH release,[6],close to maximal
"c1ccc2c(c1)[I+]c1ccccc1-2 [DPI, diphenyleneiodonium chloride]",Effect of NADPH oxidase inhibitor on PMA-induced NET formation,"[2]; PMA 50 nM, DPI 10 μM, three independent experiments",potently inhibited
same,Effect of NADPH oxidase inhibitor on PSMα-induced NETs,"[2]; PSMα2 2.5 μM, DPI 10 μM, three independent experiments",without effect
